Entries after “also recorded” stand apart in the source; their conditions may differ.

Data set [1] deals with proteolytic activity of OPAL B filtrate (cysteine and serine proteases). The data set is described as follows: Effect of protease inhibitors on L-BApNA proteolytic activity of OPAL B filtrate. The following applies: inhibitor added to OPAL B filtrate. It counts as biochemical, Carica papaya. As to the method: (§1) A 1.5 mM stock solution of L-BApNA (B-3133 sigma) was prepared by dissolving 63 mg of L-BApNA in 1.5 ml dimethyl sulfoxide (DMSO), and then made up to 100 ml with water. Hydrolysis of the L-BApNA at the bond between the arginine and the p-nitroaniline moieties releases the chromophore p-nitroaniline, which can be detected by spectroscopy at an absorbance of 410 nm in International Units (IU). IU is defined as the amount of enzyme that causes an increase in absorbance of 0.01 units/min under excess substrate conditions (zero order kinetics). Solids specific activity is expressed in IU/mg, while in the case of liquid formulations, the activity is expressed in IU/mL.
(§2) We therefore previously concluded that the protease activity in OPAL A is essentially due only to the presence of active cysteine proteases. To determine the effect of omitting the heat treatment step, the protease activity in both OPAL A and OPAL B filtrates was tested using an L-BApNA assay. After 10 minutes, E-64 inhibitor was added.
To better understand the non-thiol dependent or non-cysteine proteases in the OPAL B filtrate, enzymatic assays were carried out initially using a Protease Inhibitor Cocktail (PIC) (sigma P2714), containing all the essential protease inhibitors (see Table 3).

The subject of data set [2] is cysteine protease(s) and serine protease(s) in OPAL B filtrate. Put plainly: Overlay zymography of OPAL B filtrate with L-BApNA membrane, with or without inhibitors. Type of data set: biochemical, Carica papaya. The following applies: inhibitor on nitrocellulose membrane; upper band cysteine, lower band serine protease(s). The protocol: Overlay-zymography was carried out according to the procedure in Vinokurov et al. (2005) with some modifications (FIG. 1). Briefly, a nitrocellulose membrane was soaked in a 1.2 mg/mL L-BApNA solution in water. The membrane was subsequently left to air dry for 5 minutes and then laid on top of the native PAGE gel after running the samples through, which were slightly soaked in their respective running buffers. Two additional experiments were carried out in which membranes were soaked in […] R-alanine, 0.14 M acetic acid, pH 4.3, with either 10 mM DTT or 25 mM cysteine. All zymographies were then incubated in a closed chamber at 37° C. for 30-60 min. The membrane was removed and again left to dry for 5 minutes and the p-nitroaniline was visualized by diazotization.
Diazotization was performed by following the protocol detailed in Hosseininaveh et al. (2009). […]
OPAL B filtrate appears to be a complex mixture of many proteins. Therefore, to individually visualize the protease activities that were detected by spectrophotometry assays, we used a technique called overlay zymography. […]

For data set [3], the system named is active serine protease in OPAL B filtrate. The data set is described as follows: Serine protease reactivity probe, SDS PAGE western blotting of OPAL B filtrate. Type of data set: biochemical, Carica papaya. The text has this: To establish which of the different bands corresponded to a proteolytically active form of subtilase in the OPAL B filtrate, we used a reactivity probe, which specifically labels active serine proteases via a fluorosulfonate group linked to biotin. This reactivity probe can then be visualized on a regular SDS PAGE gel via western blotting technique, using streptavidin-conjugated enzymes such as alkaline phosphatase. Using this technique allowed the visualization of the active serine protease band inhibited by AEBSF treatment at around 50 kDa as shown in FIG. 11.

Data set [4] concerns cysteine protease activity of OPAL A. Put plainly: Effect of E-64 on protease activity of OPAL A. The following applies: previously established, unpublished data. Type of data set: biochemical, Carica papaya. As to the method:
as §2

Data set [5] in a line: L-BApNA proteolytic activity assay (A410). It counts as biochemical. The protocol: as §1
To determine the optimal substrate concentration to maintain zero order kinetics throughout experiments, a series of titration runs were carried out with a range of substrate concentrations. The minimum concentration thus found is […] or 1:6 dilution of the stock 1.5 mM solution. […] Phosphate buffer at pH 6 was used in the L-BApNA assays because it gave the highest enzymatic activity reading compared to other buffers.
Hydrolysis of L-BApNA in the presence of protease, at the bond between the arginine and p-nitroaniline moieties, releases the chromophore p-nitroaniline, which can then be detected by spectroscopy at a wavelength of 410 nm. […]

`NCCc1ccc(S(=O)(=O)F)cc1` [AEBSF]: in data set [1], the “inhibition of L-BApNA proteolytic activity of OPAL B filtrate” value was “able to halt proteolytic activity”. The “inhibition of zymography bands of OPAL B” value in data set [2] is given as “inhibition of lower band”. Besides, the “effect on active serine protease band at around 50 kDa labelled by reactivity probe” value in data set [3] was “inhibited”.

On to `CC(C)C[C@H](NC(=O)[C@H]1C[C@@H]1C(=O)O)C(=O)NCCCCNC(=N)N` [E-64, (1S,2S)-2-(((S)-1-((4-Guanidinobutyl)amino)-4-methyl-1-oxopentan-2-yl)carbamoyl) cyclopropane carboxylic acid], for which, in data set [4], the “inhibition of cysteine protease activity of OPAL A” value is listed as “essentially abolished”. In addition, in data set [1], the “inhibition of L-BApNA proteolytic activity of OPAL B filtrate” value is “did not result in complete inhibition of activity; also recorded: able to halt proteolytic activity”. Besides, the “inhibition of zymography bands of OPAL B” value in data set [2] is recorded as “complete inhibition of upper band”.

B1: pure latex papain: Pure latex papain, reference for specific L-BApNA activity (protein, UniProt P00784 134-345, looked up)
Papain: IPEYVDWRQKGAVTPVKNQGSCGSCWAFSAVVTIEGIIKIRTGNLNEYSEQELLDCDRRSYGCNGGYPWSALQLVAQYGIHYRNTYPYEGVQRYCRSREKGPYAAKTDGVRQVQPYNEGALLYSIANQPVSVVLEAAGKDFQLYRGGIFVGPCGNKVDHAVAAVGYGPNYILIKNSWGTGWGENGYIRIKRGTGNSYGVCGLYTSSFYPVKN
On to B1, for which the “activity of pure latex papain” value in data set [5] is reported as “around 10 IU/mg”.

These data come from patent US20230054563A1, “COMPOSITION AND METHODS OF MANUFACTURE” (Phoenix Eagle Company Pty Ltd, priority 2019, published 2023).
